Results as given in patent publication US20080275085A1, “Piperidine derivative and use thereof” (priority 2007, published 2008).
Structures can show the parent of a compound that is named as a salt.

Legend:
[1] = molecular target: T1, substance P receptor (Homo sapiens, UniProt P25103); assay: Radioligand receptor binding inhibitory activity (125I-BHSP binding, receptor from IM-9 cells); details: receptor from human lymphoblast cells (IM-9); radioligand 125I-BHSP; 25° C., 30 min
T1 construct: The receptor was prepared from human lymphoblast cells (IM-9); endogenous in cells; host or cells: IM-9 human lymphoblast cells (membrane fraction, 100,000xG precipitate)
T1 sequence (P25103 whole entry): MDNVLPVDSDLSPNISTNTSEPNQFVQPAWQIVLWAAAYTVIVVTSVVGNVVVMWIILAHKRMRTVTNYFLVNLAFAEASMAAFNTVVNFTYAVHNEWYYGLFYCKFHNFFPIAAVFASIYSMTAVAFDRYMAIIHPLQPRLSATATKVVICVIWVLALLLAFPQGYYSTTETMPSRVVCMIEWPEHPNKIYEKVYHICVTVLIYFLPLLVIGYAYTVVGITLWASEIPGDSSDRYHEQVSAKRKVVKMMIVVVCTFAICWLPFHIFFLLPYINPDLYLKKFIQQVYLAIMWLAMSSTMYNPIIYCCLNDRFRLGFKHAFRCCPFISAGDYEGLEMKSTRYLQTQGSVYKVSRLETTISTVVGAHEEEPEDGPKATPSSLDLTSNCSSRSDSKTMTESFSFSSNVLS
Procedure: Radioligand Receptor Binding Inhibitory Activity (Binding Inhibitory Activity Using Receptor from Human Lymphoblast Cells (IM-9))
The method of M. A. Cascieri et al., “Molecular Pharmacology, vol. 42, p. 458 (1992)” was modified and used. The receptor was prepared from human lymphoblast cells (IM-9).
IM-9 cells (2×10^5 cells/mL) were inoculated and incubated for 3 days, which was then subjected to centrifugation for 10 min. at 500×G to give cell pellets. The obtained pellets were washed with PBS (GIBCO), disrupted in buffer A (50 mM tris.hydrochloric acid buffer (pH 7.4) containing 120 mM sodium chloride, 5 mM potassium chloride, 2 μg/mL chymostatin, 40 μg/mL bacitracin, 40 μg/mL APMSF, 1 mM ethylenediamine tetra acetic acid) using a polytron.homogenizer [manufactured by Kinematika, Germany], and centrifuged at 100,000×G for 40 min. The precipitated fraction was suspended in buffer B (50 mM Tris-HCl (pH 7.4), 0.02% bovine serum albumin, 2 μg/mL chymostatin, 40 μg/mL bacitracin, 40 μg/mL APMSF, 3 mM MgCl2), which was then cryopreserved (−80° C.) as a receptor specimen.
Buffer B (50 μL) was added to a 96 well microassay plate (CORNING). Thereto was added 50 μL of membrane preparation suspended in buffer B at 250 μg/mL. A measurement buffer (50 μL) containing 2% dimethyl sulfoxide was added to examine total binding; 4 μM unlabeled SP (50 μL) diluted with a measurement buffer containing 2% dimethyl sulfoxide was added to examine non-specific binding; and 50 μL of a test compound (containing 2% dimethyl sulfoxide) diluted with a measurement buffer was added to examine binding inhibitory activity of the test compound. In addition, […] ^125I-BHSP solution (50 μL) was added to each well.
After reaction at 25° C. for 30 min, the cells were rapidly filtered through a GF/C filter plate (PerkinElmer) using a cell harvester (manufactured by PerkinElmer) to quench the reaction, and washed 10 times with 250 μL of 50 mM tris-HCl buffer (pH 7.4) containing 0.02% bovine serum albumin. The GF/C filter plate was dried, MicroScinti 0 (20 μL) was added, and the radioactivity was measured with TopCount (manufactured by PerkinElmer). The GF/C filter plate was immersed in 0.3% polyethylene imine for one day before use.
Specific binding is a value obtained by subtracting nonspecific binding from total binding. The binding inhibitory activity of a test compound is shown by a ratio of a value obtained by subtracting a measurement value with addition of a test compound from the total binding, relative to specific binding.
The antagonistic activity of the compounds obtained in the Examples was determined as a concentration necessary for causing 50% inhibition (IC50 value) under the above-described conditions, and the results shown in Table 34 were obtained.
The radio ligand means substance P labeled with [^125I].

Structure (SMILES)	melting point [°C]	IC50 [1] [nM]
Cc1cc(F)ccc1[C@H]1CN(C(=O)C2CCN(C(=O)CO)CC2)CC[C@@H]1C(=O)N(C)[C@@H](C)c1cc(C(F)(F)F)cc(C(F)(F)F)c1 (hydrate or solvate) [Example 152, (3S,4S)—N-{(1S)-1-[3,5-bis(trifluoromethyl)phenyl]ethyl}-3-(4-fluoro-2-methylphenyl)-1-[(1-glycoloylpiperidin-4-yl)carbonyl]-N-methylpiperidine-4-carboxamide]	108 to 116	–
Cc1cc(F)ccc1[C@@H]1CN(C(C)CO)CC[C@H]1C(=O)N(C)Cc1cc(C(F)(F)F)cc(C(F)(F)F)c1 (relative stereo) (as salt: hydrochloride) [Example 120, (3R*,4R*)—N-[3,5-bis(trifluoromethyl)benzyl]-3-(4-fluoro-2-methylphenyl)-1-(2-hydroxy-1-methylethyl)-N-methylpiperidine-4-carboxamide monohydrochloride]	234 to 236	–
Cc1cc(F)ccc1[C@@H]1CN(S(=O)(=O)CCN2CCOCC2)CC[C@H]1C(=O)N(C)Cc1cc(C(F)(F)F)cc(C(F)(F)F)c1 (relative stereo) (as salt: hydrochloride) [Example 139, (3R*,4R*)—N-[3,5-bis(trifluoromethyl)benzyl]-3-(4-fluoro-2-methylphenyl)-N-methyl-1-[(2-morpholin-4-ylethyl)sulfonyl]piperidine-4-carboxamide monohydrochloride]	196 to 198	–
Cc1cc(F)ccc1[C@H]1CN(CC(N)=O)CC[C@@H]1C(=O)N(C)[C@H](C)c1cc(C(F)(F)F)cc(C(F)(F)F)c1.Cl (hydrate or solvate)	133 to 139	–
Cc1ccccc1[C@@H]1CN(C(=O)C2CCN(C(=O)CO)CC2)CC[C@H]1C(=O)N(C)Cc1cc(C(F)(F)F)cc(C(F)(F)F)c1 (relative stereo) [Example 16, (3R*,4R*)—N-[3,5-bis(trifluoromethyl)benzyl]-1-[(1-glycoloylpiperidin-4-yl)carbonyl]-N-methyl-3-(2-methylphenyl)piperidine-4-carboxamide]	173 to 174	–
Cc1cc(F)ccc1[C@@H]1CN(CC(N)=O)CC[C@H]1C(=O)N(C)Cc1cc(C(F)(F)F)cc(C(F)(F)F)c1 (relative stereo) (as salt: hydrochloride) (hydrate or solvate) [Example 112, (3R*,4R*)-1-(2-amino-2-oxoethyl)-N-[3,5-bis(trifluoromethyl)benzyl]-3-(4-fluoro-2-methylphenyl)-N-methylpiperidine-4-carboxamide monohydrochloride]	175 to 177	–
Cc1cc(F)ccc1[C@@H]1CN(C(C)(C)C(N)=O)CC[C@H]1C(=O)N(C)Cc1cc(C(F)(F)F)cc(C(F)(F)F)c1 (relative stereo) (as salt: hydrochloride) [Example 113, (3R*,4R*)-1-(2-amino-1,1-dimethyl-2-oxoethyl)-N-[3,5-bis(trifluoromethyl)benzyl]-3-(4-fluoro-2-methylphenyl)-N-methylpiperidine-4-carboxamide monohydrochloride]	209 to 211	–
Cc1cc(F)ccc1[C@@H]1CN(C2CCN(C(=O)C(N)=O)CC2)CC[C@H]1C(=O)N(C)Cc1cc(C(F)(F)F)cc(C(F)(F)F)c1 (relative stereo) (as salt: hydrochloride) (hydrate or solvate) [Example 108, (3R*,4R*)-1′-[amino(oxo)acetyl]-N-[3,5-bis(trifluoromethyl)benzyl]-3-(4-fluoro-2-methylphenyl)-N-methyl-1,4′-bipiperidine-4-carboxamide monohydrochloride]	175 to 176	–
Cc1cc(F)ccc1[C@@H]1CN(C2CCN(C(N)=O)CC2)CC[C@H]1C(=O)N(C)Cc1cc(C(F)(F)F)cc(C(F)(F)F)c1 (relative stereo) [Example 109, (3R*,4R*)—N^4-[3,5-bis(trifluoromethyl)benzyl]-3-(4-fluoro-2-methylphenyl)-N^4-methyl-1,4′-bipiperidine-1′,4-dicarboxamide monohydrochloride]	–	0.023
Cc1cc(F)ccc1[C@H]1CN(C(=O)c2cncnc2)CC[C@@H]1C(=O)N(C)[C@@H](C)c1cc(C(F)(F)F)cc(C(F)(F)F)c1 (hydrate or solvate) [Example 158, (3S,4S)—N-{(1S)-1-[3,5-bis(trifluoromethyl)phenyl]ethyl}-3-(4-fluoro-2-methylphenyl)-N-methyl-1-(pyrimidin-5-ylcarbonyl)piperidine-4-carboxamide]	185 to 188	–
Cc1cc(F)ccc1[C@@H]1CN(CC(=O)NC2CC2)CC[C@H]1C(=O)N(C)Cc1cc(C(F)(F)F)cc(C(F)(F)F)c1 (relative stereo) (as salt: hydrochloride) [Example 103, (3R*,4R*)—N-[3,5-bis(trifluoromethyl)benzyl]-1-[2-(cyclopropylamino)-2-oxoethyl]-3-(4-fluoro-2-methylphenyl)-N-methylpiperidine-4-carboxamide monohydrochloride]	210 to 214	–
Cc1cc(F)ccc1[C@H]1CN(C(=O)CN2C(=O)OC(C)(C)C2=O)CC[C@@H]1C(=O)N(C)[C@@H](C)c1cc(C(F)(F)F)cc(C(F)(F)F)c1 [Example 154, (3S,4S)—N-{(1S)-1-[3,5-bis(trifluoromethyl)phenyl]ethyl}-1-[(5,5-dimethyl-2,4-dioxo-1,3-oxazolidin-3-yl)acetyl]-3-(4-fluoro-2-methylphenyl)-N-methylpiperidine-4-carboxamide]	–	0.097
Cc1cc(F)ccc1[C@@H]1CN(CC(N)=O)CC[C@H]1C(=O)N(C)Cc1cc(C(F)(F)F)cc(C(F)(F)F)c1 (relative stereo) [Example 112, (3R*,4R*)-1-(2-amino-2-oxoethyl)-N-[3,5-bis(trifluoromethyl)benzyl]-3-(4-fluoro-2-methylphenyl)-N-methylpiperidine-4-carboxamide monohydrochloride]	–	0.038
Cc1cc(F)ccc1[C@@H]1CN(C(C)CO)CC[C@H]1C(=O)N(C)Cc1cc(C(F)(F)F)cc(C(F)(F)F)c1 (relative stereo) [Example 120, (3R*,4R*)—N-[3,5-bis(trifluoromethyl)benzyl]-3-(4-fluoro-2-methylphenyl)-1-(2-hydroxy-1-methylethyl)-N-methylpiperidine-4-carboxamide monohydrochloride]	–	0.043
Cc1cc(F)ccc1[C@H]1CN(C(=O)C2CCN(C(=O)CO)CC2)CC[C@@H]1C(=O)N(C)Cc1cc(C(F)(F)F)cc(C(F)(F)F)c1 [Example 149, (3S,4S)—N-[3,5-bis(trifluoromethyl)benzyl]-3-(4-fluoro-2-methylphenyl)-1-[(1-glycoloylpiperidin-4-yl)carbonyl]-N-methylpiperidine-4-carboxamide]	–	0.015
Cc1ccccc1[C@H]1CN(C(=O)C2CCN(C(=O)[C@@H](C)O)CC2)CC[C@@H]1C(=O)N(C)Cc1cc(C(F)(F)F)cc(C(F)(F)F)c1 [Example 29, (3S,4S)—N-[3,5-bis(trifluoromethyl)benzyl]-1-({1-[(2R)-2-hydroxypropanoyl]piperidin-4-yl}carbonyl)-N-methyl-3-(2-methylphenyl)piperidine-4-carboxamide]	–	0.023
CC(=O)Nc1ccc(N2CC[C@@H](C(=O)N(C)Cc3cc(C(F)(F)F)cc(C(F)(F)F)c3)[C@H](c3ccc(F)cc3C)C2)nc1 (relative stereo) [Example 129, (3R*,4R*)-1-[5-(acetylamino)pyridin-2-yl]-N-[3,5-bis(trifluoromethyl)benzyl]-3-(4-fluoro-2-methylphenyl)-N-methylpiperidine-4-carboxamide monohydrochloride]	–	0.095
Cc1ccccc1[C@H]1CN(C(=O)C2CCN(C(=O)CO)CC2)CC[C@@H]1C(=O)N(C)Cc1cc(C(F)(F)F)cc(C(F)(F)F)c1 [Example 18, (3S,4S)—N-[3,5-bis(trifluoromethyl)benzyl]-1-[[1-glycoloylpiperidin-4-yl]carbonyl]-N-methyl-3-(2-methylphenyl)piperidine-4-carboxamide]	–	0.024
